{"source": "paper PMC9147192", "about": "“Small Molecule Arranged Thermal Proximity Coaggregation (smarTPCA)—A Novel Approach to Characterize Protein–Protein Interactions in Living Cells by Similar Isothermal Dose–Responses” (International Journal of Molecular Sciences, 2022)", "test_in_all_cases": "CETSA in HL-60 cell extract, immunoblot", "type_in_all_cases": "binding", "key": {"MAPKAPK3": {"target": "MAPKAPK3 (Homo sapiens, UniProt Q16644)", "sequence (Q16644 whole entry)": "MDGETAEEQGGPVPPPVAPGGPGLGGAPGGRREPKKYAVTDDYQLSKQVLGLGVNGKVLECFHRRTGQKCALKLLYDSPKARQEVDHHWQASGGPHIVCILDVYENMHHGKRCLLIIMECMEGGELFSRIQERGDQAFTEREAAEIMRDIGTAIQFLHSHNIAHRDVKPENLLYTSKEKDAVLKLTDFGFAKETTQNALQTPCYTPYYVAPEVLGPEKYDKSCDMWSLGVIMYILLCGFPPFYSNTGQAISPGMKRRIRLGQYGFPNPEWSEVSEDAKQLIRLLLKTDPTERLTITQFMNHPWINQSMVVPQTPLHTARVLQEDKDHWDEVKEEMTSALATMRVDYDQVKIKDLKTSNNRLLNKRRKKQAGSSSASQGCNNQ", "sequence (Q16539 whole entry partner)": "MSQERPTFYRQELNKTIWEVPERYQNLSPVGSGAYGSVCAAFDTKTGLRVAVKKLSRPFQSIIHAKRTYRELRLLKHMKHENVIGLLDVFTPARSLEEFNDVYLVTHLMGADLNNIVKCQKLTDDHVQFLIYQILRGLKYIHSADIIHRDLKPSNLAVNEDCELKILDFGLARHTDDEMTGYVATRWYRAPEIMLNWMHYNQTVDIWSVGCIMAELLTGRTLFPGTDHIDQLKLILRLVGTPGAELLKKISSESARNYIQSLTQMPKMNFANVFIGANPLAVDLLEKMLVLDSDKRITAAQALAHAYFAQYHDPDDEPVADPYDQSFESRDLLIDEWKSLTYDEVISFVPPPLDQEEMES", "method": "(§1) For the differentiation of primary and secondary binding effects, CETSA experiments using cell extracts instead of living cells (cell extract test) are proposed in the literature. Therefore, we performed CETSA assays in HL-60 cell extracts under the same conditions as for living cells (Figure 1, Table 1, Supplementary Table S6).\n(§2) HL-60 cells were expanded as described above for CETSA and TPP-TR to about 1.25 million cells per ml. 50 mL of the cell suspension, respectively, was transferred into 50 mL conical tubes. After centrifugation (300 rcf, 3 min, r.t.) and removing all of the supernating culture medium, the cells were washed twice with 25 mL PBS (r.t.) by gently resuspending the cells, followed by centrifugation (300 rcf, 3 min, r.t.) and the removal of the supernatant. The cells were transferred into pre-weighed 2 mL LoBind Eppendorf tubes using 1 mL PBS (r.t.), respectively, for resuspending. After centrifugation (300 rcf, 3 min, r.t.) and removing as much as possible of the supernatants, the cell wet weights were determined. The cells were stored at −80 °C after shock-freezing in liquid nitrogen.\n(§3) Cell extracts were obtained by four freeze/thaw cycles as described above for CETSA and TPP-TR using 10 µL ice cold PBS supplemented with protease inhibitors per milligram of cell pellet wet weight for the initial resuspension of the pellet, followed by centrifugation (20,000 rcf, 30 min, 4 °C), and the recovery of the supernatant. After determining the protein content, the cell extracts were diluted to 1.8 mg/mL total protein concentration using ice-cold PBS supplemented with protease inhibitors and aliquots of 99 µL in PCR tube strips, and 1.1 mL in LoBind 1.5 mL Eppendorf tubes were shock-frozen in liquid nitrogen and stored at −80 °C or directly processed.\n(§4) A fourth aliquot of 1.8 mg/mL HL-60 cell extract was supplemented with 2.2 µL of DMSO. […] After a brief centrifugation using a benchtop centrifuge, the temperature treatment at the ten different temperatures was performed as described in Section 4.1.1.\n(§5) Additionally, the preparation of cell extracts containing the fraction of soluble, non-denatured proteins was performed as described in Section 4.1.1. for living cells, but omitting the freeze/thaw steps for cell lysis.\n(§6) For each sample set comprising either ten temperature range samples or ten compound concentration range samples, the same volume of the cell extracts containing the fraction of soluble, non-denatured proteins was used for further analysis. This volume was determined using the two lowest temperature samples (36.5 and 41.2 °C) per temperature range sample set so that they contained an average of 5 µg total protein (e.g., 2.78 µL for all temperature range samples of a sample set whose two lowest temperature samples contain an average of 1.8 mg/mL protein). For the compound concentration range experiments, all samples of a set were used for averaging. The calculated volume was respectively transferred into PCR tubes of a tube strip, supplemented with SDS sample buffer (final concentrations: 25 mM dithiothreitol (DTT), 7.5% glycerol, 3% SDS, 37.5 mM Tris/HCl pH 7.0, 0.005% bromophenol blue), incubated for 10 min at r.t. and applied to SDS-PAGE under external cooling in an ice bath (MW marker: PageRuler pre-stained protein ladder (Thermo scientific, Waltham, MA, USA); NuPAGE 4–12% Bis-Tris Gels, 1.0 mm, Midi Protein Gel, 26-well (Thermo fisher scientific); ice cold MOPS SDS running buffer (50 mM MOPS, 50 mM Tris base, 0.1% SDS, 0.003% EDTA (free acid)); 50 V for 15 min, then 200 V for about 1.5 h, i.e., the rest of the run)."}, "MAPKAPK2p": {"target": "T1, MAPKAPK2p (Homo sapiens, UniProt P49137)", "T1 construct": "phosphorylation-dependent electrophoretic mobility shift (PDEMS) of MAPKAPK2, which appeared as a double band; endogenous in cells; host or cells: HL-60 (ATCC CCL-240), living cells or cell extract", "T1 sequence (P49137 whole entry)": "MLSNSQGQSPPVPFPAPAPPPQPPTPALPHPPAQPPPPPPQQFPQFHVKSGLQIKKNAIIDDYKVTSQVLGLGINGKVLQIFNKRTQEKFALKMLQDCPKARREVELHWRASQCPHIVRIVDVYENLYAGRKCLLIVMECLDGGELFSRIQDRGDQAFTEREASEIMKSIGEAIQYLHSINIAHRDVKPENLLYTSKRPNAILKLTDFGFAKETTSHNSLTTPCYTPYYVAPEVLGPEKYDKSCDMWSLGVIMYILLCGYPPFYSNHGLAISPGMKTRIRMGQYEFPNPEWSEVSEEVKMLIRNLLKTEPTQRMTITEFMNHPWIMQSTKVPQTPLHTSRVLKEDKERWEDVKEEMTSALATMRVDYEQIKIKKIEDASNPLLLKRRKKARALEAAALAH", "T1 sequence (Q16539 2-360 partner)": "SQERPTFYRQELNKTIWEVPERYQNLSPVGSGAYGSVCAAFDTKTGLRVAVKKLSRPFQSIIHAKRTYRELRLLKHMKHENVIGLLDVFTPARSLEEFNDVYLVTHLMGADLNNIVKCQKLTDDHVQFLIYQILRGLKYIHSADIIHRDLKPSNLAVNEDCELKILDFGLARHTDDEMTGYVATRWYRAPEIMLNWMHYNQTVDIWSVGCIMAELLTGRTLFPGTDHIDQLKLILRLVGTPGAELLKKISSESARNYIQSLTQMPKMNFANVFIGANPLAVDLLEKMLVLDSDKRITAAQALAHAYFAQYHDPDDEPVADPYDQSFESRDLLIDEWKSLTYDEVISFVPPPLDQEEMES", "method": "as §1, §2, §3, §4, §5, §6"}, "MAPK14": {"target": "MAPK14 (Homo sapiens, UniProt Q16539)", "sequence (Q16539 whole entry)": "as the sequence (Q16539 whole entry partner) above", "method": "as §1, §2, §3, §4, §5, §6"}, "[1]": {"conditions": "HL-60 cell extract, 20 µM inhibitor, immunoblot"}, "[2]": {"conditions": "HL-60 cell extract, 20 µM inhibitor, immunoblot, 20 µM"}, "[3]": {"conditions": "MAPKAPK3, cell extract, immunoblot"}, "[4]": {"conditions": "MAPKAPK2p, cell extract, immunoblot"}}, "note": "Where “and” joins values, the source holds several entries; their conditions need not be identical. Equal values may be shown once. Read-outs that look alike come from different tables or passages of the source."}
{"smiles": "Cn1c(NC[C@@H](N)Cc2ccccc2)nc(-c2ccncc2)c(-c2ccc3ccccc3c2)c1=O", "note": "[AMG-548]", "values": [{"measurement": "ΔTm to DMSO in Cell Extract Compared to Living Cells (MAPKAPK3)", "setting": "MAPKAPK3; 20 µM inhibitor", "result": "−3.99", "unit": "°C"}, {"measurement": "Tm difference vs DMSO, same protein", "setting": "MAPKAPK3; CETSA in cell extract (lysate), MAPKAPK3, inhibitor minus DMSO", "result": 2.63}, {"measurement": "Tm (fitted melting curve)", "setting": "MAPKAPK3; CETSA in cell extract (lysate), MAPKAPK3, in °C", "result": 49.31}, {"measurement": "Tm (MAPKAPK3)", "setting": "MAPKAPK3; [1]", "result": 49.31, "unit": "°C"}, {"measurement": "ΔTm to DMSO (MAPKAPK3)", "setting": "MAPKAPK3; [2]", "result": "2.6 °C and 2.63 °C"}, {"measurement": "ΔTm to DMSO in cell extract compared to living cells", "setting": "MAPKAPK3; MAPKAPK3, cell extract minus living cells", "result": -3.99, "unit": "°C"}, {"measurement": "Tm", "setting": "MAPKAPK3; [3]", "result": 49.31, "unit": "°C"}, {"measurement": "ΔTm to DMSO", "setting": "MAPKAPK3; [3]", "result": 2.63, "unit": "°C"}, {"measurement": "Tm difference vs DMSO, same protein", "setting": "MAPKAPK2p; CETSA in cell extract (lysate), MAPKAPK2p, inhibitor minus DMSO", "result": 2.82}, {"measurement": "Tm (fitted melting curve)", "setting": "MAPKAPK2p; CETSA in cell extract (lysate), MAPKAPK2p, in °C", "result": 50.95}, {"measurement": "Tm (MAPKAPK2p)", "setting": "MAPKAPK2p; [1]", "result": 50.95, "unit": "°C"}, {"measurement": "ΔTm to DMSO (MAPKAPK2p)", "setting": "MAPKAPK2p; [2]", "result": 2.82, "unit": "°C"}, {"measurement": "ΔTm to DMSO (MAPKAPK2p)", "setting": "MAPKAPK2p; HL-60 cell extract, 20 µM inhibitor, immunoblot, listed as AMG548, 20 µM", "result": 2.8, "unit": "°C"}, {"measurement": "Tm", "setting": "MAPKAPK2p; [4]", "result": 50.95, "unit": "°C"}, {"measurement": "ΔTm to DMSO", "setting": "MAPKAPK2p; [4]", "result": 2.82, "unit": "°C"}, {"measurement": "ΔTm at 20 µM", "setting": "MAPK14; 20 µM inhibitor, read-out: ΔTm to DMSO in Cell Extract Compared to Living Cells (MAPK14)", "result": -1.16, "unit": "°C"}, {"measurement": "Tm difference vs DMSO, same protein", "setting": "MAPK14; CETSA in cell extract (lysate), MAPK14, inhibitor minus DMSO", "result": 13.60}, {"measurement": "Tm (fitted melting curve)", "setting": "MAPK14; CETSA in cell extract (lysate), MAPK14, in °C", "result": 59.15}, {"measurement": "Tm (MAPK14)", "setting": "MAPK14; [1]", "result": 59.15, "unit": "°C"}, {"measurement": "ΔTm at 20 µM", "setting": "MAPK14; HL-60 cell extract, 20 µM inhibitor, immunoblot, read-out: ΔTm to DMSO (MAPK14)", "result": 13.6, "unit": "°C"}, {"measurement": "Tm", "setting": "MAPK14; MAPK14, cell extract, immunoblot", "result": 59.15, "unit": "°C"}]}
